Results as given in patent US20230382863A1, “MEK INHIBITORS AND USES THEREOF” (Ikena Oncology, Inc., priority 2022, published 2023).

Legend:
uMEK/BRAF = uMEK/BRAF (Homo sapiens (Human), UniProt Q02750); experiment: MEK-RAF Binding Assay (uMEK/BRAF HTRF)
[1] = test system: Phosphorylation of ERK1/2 in AsPC1 cells; experiment: 4 hour pERK1/2 HTRF Assay; assay type: cell-based; settings: Homo sapiens, ASPC1, read-out: pERK AsPC-1 HTRF (4 hour): Average IC50 (nM); AsPC-1, 4 hour
Experimental: AsPC1 cells were seeded at 20,000 cells/well overnight in 96-well plates, then treated with a 12-point dose response of compounds (Starting dose of 3000 nM and 3-fold dilution) for 4 hours. AsPC1 cells are a K-Ras mutant cell line. Phosphorylation of ERK1/2 on residues Thr202 and Tyr204 were detected using a Homogenous Time-Resolved Fluorescence (HTRF) assay (Cisbio Cat #64ERKPEG). Briefly, ERK phosphorylation was detected using a sandwich assay format using two phospho-ERK specific antibodies, one labelled with EU^3+-Cryptate (donor) and the second with d2 (acceptor). The Fluorescence Resonance Energy Transfer (FRET) towards the d2 acceptor was detected at a wavelength of 665 nm. ERK1/2 phosphorylation levels were normalized to total ERK1/2 protein levels in each well. IC50 values were determined by fitting a variable slope, four parameters curve to the compound concentration to normalized Phospho-ERK1/2 relationship.

[2] = Cassette pharmacokinetics studies in mice; assay type: in vivo; settings: male, Balb/c, plasma; Mouse, PO, 5 mg/kg
Experimental: Pharmacokinetics studies were conducted using cassette dosing protocols, with test compounds administered per mouse. Treatment groups were 3 mice (˜6-8 weeks old, ˜20-30 g Balb/c male mice) per route of administration. Compounds were formulated in 5% DMSO and 95% PEG400 with final concentrations of 0.5 mg/mL for IV and PO dosing. Compounds were dosed at 2 mg/kg for IV dosing and 5 mg/kg for PO dosing. Blood samples were withdrawn at 0.083, 0.25, 0.5, 1.0, 2.0, 4.0, 6.0, 8.0, and 24 hours following IV dosing, and 0.25, 0.5, 1.0, 2.0, 4.0, 6.0, 8.0, and 24 hours following PO dosing. Blood samples were centrifuged at 4,000 g for 5 minutes at 4° C. to obtain plasma samples. Plasma samples were diluted with acetonitrile containing internal standard, vortexed for 30 seconds, then centrifuged at 4,000 rpm for 15 minutes at 4° C. The supernatant was diluted with water, and compound concentration was determined by HPLC/MS/MS compared to calibration standards of 0.5-1,000 ng/mL.
Where route is listed as “IV*”, the compound was dosed IV at 1 mg/kg.

Cc1c(Oc2cccc(N)c2Cl)c(C(=O)NC2CC2)c(Nc2ccc(I)cc2F)n(C)c1=O [Compound I-86]
IC50 (uMEK/BRAF): < 100 nM | IC50 [1]: < 100 nM

CNS(=O)(=O)Nc1cncc(Oc2c(C(=O)NC3CC3)c(Nc3ccc(I)cc3F)n(C)c(=O)c2C)c1Cl [Compound I-122]
IC50 [1]: 100 to 1000 nM

CCn1c(Nc2ccc(I)cc2F)c(C(=O)NC2CC2)c(Oc2cccc(NS(=O)(=O)NC)c2Cl)c(C2CC2)c1=O [Compound I-117]
IC50 [1]: 1000 to 10000 nM

CNS(=O)(=O)Nc1cccc(Oc2c(C(=O)N3CCC3)c(Nc3ccc(I)cc3F)n(C)c(=O)c2C)c1Cl [Compound I-79]
IC50 (uMEK/BRAF): 100 to 1000 nM | IC50 [1]: < 100 nM

CNS(=O)(=O)Nc1cccc(Oc2c(C(=O)NC3CC3)c(Nc3ccc(I)cc3F)n(C)c(=O)c2C)c1C(F)(F)F [Compound I-37]
AUC(0-inf) [2]: 12900 ng·h/mL | AUC(0-t) [2]: 12900 ng·h/mL | Cmax [2]: 1730 ng/mL | Tmax [2]: 1.7 h | half-life [2]: 1.99 h

CNS(=O)(=O)Nc1ccc(Oc2c(C(=O)NC3CC3)c(Nc3ccc(I)cc3F)n(C)c(=O)c2C)c(Cl)c1 [Compound I-63]
IC50 (uMEK/BRAF): 100 to 1000 nM | IC50 [1]: 100 to 1000 nM

CNS(=O)(=O)Nc1c(F)ccc(Oc2c(C(=O)NC3CC3)c(Nc3ccc(I)cc3F)n(C)c(=O)c2C)c1Cl [Compound I-38]
IC50 (uMEK/BRAF): < 100 nM | IC50 [1]: < 100 nM

Cc1c(Oc2cccc(NS(=O)(=O)N3CCC3)c2Cl)c(C(=O)NCC(F)(F)F)c(Nc2ccc(I)cc2F)n(C)c1=O [Compound I-106]
IC50 [1]: < 100 nM

N-cyclopropyl-4-((2,2-dioxido-3,4-dihydro-1H-benzo[c][1,2,6]thiadiazin-7-yl)oxy)-2-((2-fluoro-4-iodophenyl)amino)-1,5-dimethyl-6-oxo-1,6-dihydropyridine-3-carboxamide [Compound I-14]
IC50 (uMEK/BRAF): 100 to 1000 nM

CNS(=O)(=O)n1ccc2ccc(Oc3c(C(=O)NC4CC4)c(Nc4ccc(I)cc4F)n(C)c(=O)c3C)cc21 [Compound I-78]
IC50 (uMEK/BRAF): 100 to 1000 nM | IC50 [1]: 1000 to 10000 nM

CCN(C)S(=O)(=O)Nc1cccc(Oc2c(C(=O)NC3CC3)c(Nc3ccc(I)cc3F)n(C)c(=O)c2C)c1Cl [Compound I-111]
IC50 [1]: < 100 nM

CNS(=O)(=O)Nc1cccc(Oc2c(C(=O)NC3CC3)c(Nc3ccc(I)cc3F)n(C)c(=O)c2C)n1 [Compound I-96]
IC50 [1]: 100 to 1000 nM

CCN(c1cccc(Oc2c(C(=O)NC3CC3)c(Nc3ccc(I)cc3F)n(C)c(=O)c2C)c1Cl)S(=O)(=O)NC1CC1 [Compound I-98]
IC50 [1]: 100 to 1000 nM

CNS(=O)(=O)Nc1cc(Oc2c(C(=O)NC3CC3)c(Nc3ccc(I)cc3F)n(C)c(=O)c2C)ccc1Cl [Compound I-19]
IC50 (uMEK/BRAF): 100 to 1000 nM

CCc1c(Oc2cccc(NS(=O)(=O)NC)c2Cl)c(C(=O)NC2CC2)c(Nc2ccc(I)cc2F)n(C2CC2)c1=O [Compound I-120]
IC50 [1]: 1000 to 10000 nM

CNS(=O)(=O)Nc1cccc(Oc2c(C(=O)NC3CC3)c(Nc3ccc(I)cc3F)n(C)c(=O)c2C)c1Cl [Compound I-109]
IC50 [1]: < 100 nM

Cc1c(Oc2cccc(N(C)S(=O)(=O)NC3CC3)c2Cl)c(C(=O)NC2CC2)c(Nc2ccc(I)cc2F)n(C)c1=O [Compound I-99]
IC50 [1]: < 100 nM

CNS(=O)(=O)Nc1cccc(Oc2c(C(=O)NCC[C@H](O)CO)c(Nc3ccc(I)cc3F)n(C)c(=O)c2C)c1Cl [Compound I-118]
IC50 [1]: < 100 nM

Cc1c(Oc2cccc(NS(=O)(=O)N3CC(F)C3)c2Cl)c(C(=O)NCC(F)(F)F)c(Nc2ccc(I)cc2F)n(C)c1=O [Compound I-104]
IC50 [1]: < 100 nM

CNS(=O)(=O)N(CC(F)(F)F)c1cccc(Oc2c(C(=O)NC3CC3)c(Nc3ccc(I)cc3F)n(C)c(=O)c2C)c1Cl [Compound I-97]
IC50 [1]: 100 to 1000 nM

Cc1c(Oc2cccc(NS(=O)(=O)N3CC(F)C3)c2Cl)c(C(=O)NC2CC2)c(Nc2ccc(I)cc2F)n(C)c1=O [Compound I-107]
IC50 [1]: < 100 nM

Cc1c(Oc2cccc(NS(=O)(=O)N(C)C)c2Cl)c(C(=O)NC2CC2)c(Nc2ccc(I)cc2F)n(C)c1=O [Compound I-113]
IC50 [1]: < 100 nM

CNS(=O)(=O)Nc1cccc(Oc2c(C(=O)NCC3CC3)c(Nc3ccc(I)cc3F)n(C)c(=O)c2C)c1Cl [Compound I-39]
IC50 (uMEK/BRAF): < 100 nM | IC50 [1]: < 100 nM

Cc1c(Oc2cccc(NS(=O)(=O)N(C)C3CC3)c2Cl)c(C(=O)NC2CC2)c(Nc2ccc(I)cc2F)n(C)c1=O [Compound I-102]
IC50 [1]: < 100 nM

CNS(=O)(=O)N(C)c1cccc(Oc2c(C(=O)NC3CC3)c(Nc3ccc(I)cc3F)n(C)c(=O)c2C)c1Cl [Compound I-100]
IC50 [1]: < 100 nM

CNS(=O)(=O)Nc1cc(C)cc(Oc2c(C(=O)NC3CC3)c(Nc3ccc(I)cc3F)n(C)c(=O)c2C)c1 [Compound I-21]
IC50 (uMEK/BRAF): 100 to 1000 nM

CNS(=O)(=O)Nc1nccc(Oc2c(C(=O)NC3CC3)c(Nc3ccc(I)cc3F)n(C)c(=O)c2C)c1Cl [Compound I-121]
IC50 [1]: < 100 nM

CCc1c(Oc2cccc(NS(=O)(=O)NC)c2Cl)c(C(=O)NC2CC2)c(Nc2ccc(I)cc2F)n(C)c1=O [Compound I-92]
IC50 [1]: 100 to 1000 nM

CNS(=O)(=O)Nc1cccc(Oc2c(C(=O)NCC[C@@H](O)CO)c(Nc3ccc(I)cc3F)n(C)c(=O)c2C)c1Cl [Compound I-119]
IC50 [1]: < 100 nM

CNS(=O)(=O)Nc1cncc(Oc2c(C(=O)NC3CC3)c(Nc3ccc(I)cc3F)n(C)c(=O)c2C)c1OC [Compound I-116]
IC50 [1]: 1000 to 10000 nM

CCN(CC)S(=O)(=O)Nc1cccc(Oc2c(C(=O)NC3CC3)c(Nc3ccc(I)cc3F)n(C)c(=O)c2C)c1Cl [Compound I-110]
IC50 [1]: < 100 nM

Cc1c(Oc2cccc(NS(=O)(=O)N(C)C)c2Cl)c(C(=O)NCC(F)(F)F)c(Nc2ccc(I)cc2F)n(C)c1=O [Compound I-105]
IC50 [1]: < 100 nM

Cc1c(Oc2cccc(NS(=O)(=O)N3CCC3)c2Cl)c(C(=O)NC2CC2)c(Nc2ccc(I)cc2F)n(C)c1=O [Compound I-108]
IC50 [1]: < 100 nM

Cc1c(Oc2cccc(N(CC(F)(F)F)S(=O)(=O)NC3CC3)c2Cl)c(C(=O)NC2CC2)c(Nc2ccc(I)cc2F)n(C)c1=O [Compound I-95]
IC50 [1]: < 100 nM

CNS(=O)(=O)Nc1ccnc(Oc2c(C(=O)NC3CC3)c(Nc3ccc(I)cc3F)n(C)c(=O)c2C)c1Cl [Compound I-93]
IC50 [1]: < 100 nM

Cc1c(Oc2cccc(N(C3CC3)S(=O)(=O)NC3CC3)c2Cl)c(C(=O)NC2CC2)c(Nc2ccc(I)cc2F)n(C)c1=O [Compound I-94]
IC50 [1]: 100 to 1000 nM

CNS(=O)(=O)Nc1cccc(Nc2c(C(=O)OC3CC3)c(Nc3ccc(I)cc3F)n(C)c(=O)c2C)c1Cl [Compound I-47]
IC50 [1]: < 100 nM

CCN(C1CC1)S(=O)(=O)Nc1cccc(Oc2c(C(=O)NC3CC3)c(Nc3ccc(I)cc3F)n(C)c(=O)c2C)c1Cl [Compound I-101]
IC50 [1]: < 100 nM

Cc1c(Oc2cccc(NS(=O)(=O)N3CCC3)c2C(F)(F)F)c(C(=O)NC2CC2)c(Nc2ccc(I)cc2F)n(C)c1=O [Compound I-103]
IC50 [1]: < 100 nM

CNS(=O)(=O)Nc1cccc(Oc2c(C(=O)N(C)C3CCC3)c(Nc3ccc(I)cc3F)n(C)c(=O)c2C)c1 [Compound I-133]
AUC(0-inf) [2]: 28 ng·h/mL | AUC(0-t) [2]: 27 ng·h/mL | Cmax [2]: 41.2 ng/mL | Tmax [2]: 0.2 h | half-life [2]: 0.4 h

Cc1c(Oc2cccc(NS(N)(=O)=O)c2Cl)c(C(=O)NC2CC2)c(Nc2ccc(I)cc2F)n(C)c1=O [Compound I-112]
IC50 [1]: < 100 nM | AUC(0-inf) [2]: 5830 ng·h/mL | AUC(0-t) [2]: 5370 ng·h/mL | Cmax [2]: 979 ng/mL | Tmax [2]: 1.3 h | half-life [2]: 2.27 h

CNS(=O)(=O)Nc1ccnc(Oc2c(C(=O)NC3CC3)c(Nc3ccc(I)cc3F)n(C)c(=O)c2C)c1OC [Compound I-115]
IC50 [1]: < 100 nM
